# Results as given in publication PMC10508841, “Two jasmonic acid carboxyl methyltransferases in Gossypium hirsutum involved in MeJA biosynthesis may contribute to plant defense” (Frontiers in Plant Science, 2023).
# Key:
# GhJMT2 = target: T1, GhJMT2 (Gossypium hirsutum, UniProt A0A2K9REX3); experiment: GC-MS product detection, recombinant E. coli supernatant; assay type: biochemical; conditions: SAM 1 uL of 100 mM, KCl, 25 °C, 30 min; empty vector control; product MeJA
# T1 construct: gene JMT2; cloning primers encode MEVVQVL... ...PMDVFLF (derived)
# T1 sequence (A0A2K9REX3 1-372): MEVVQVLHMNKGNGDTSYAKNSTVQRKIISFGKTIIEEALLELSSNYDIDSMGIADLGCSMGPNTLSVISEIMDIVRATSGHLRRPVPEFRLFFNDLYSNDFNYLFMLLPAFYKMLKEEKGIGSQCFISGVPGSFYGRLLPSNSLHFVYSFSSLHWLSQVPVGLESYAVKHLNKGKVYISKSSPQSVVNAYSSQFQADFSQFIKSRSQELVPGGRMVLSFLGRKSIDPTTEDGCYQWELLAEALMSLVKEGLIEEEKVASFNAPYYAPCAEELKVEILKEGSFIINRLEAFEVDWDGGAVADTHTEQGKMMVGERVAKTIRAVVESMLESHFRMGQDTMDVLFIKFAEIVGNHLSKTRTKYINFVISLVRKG
# GhJMT1 = target: T2, GhJMT1 (Gossypium hirsutum, UniProt A0ACM8RG93); experiment: as above; assay type: biochemical; conditions: SAM 1 uL of 100 mM, KCl, 25 °C, 30 min; empty vector control; product MeJA
# T2 construct: gene JMT1; cloning primers encode MQVLHMN... ...ALTKKW (derived)
# T2 sequence (A0ACM8RG93 1-371): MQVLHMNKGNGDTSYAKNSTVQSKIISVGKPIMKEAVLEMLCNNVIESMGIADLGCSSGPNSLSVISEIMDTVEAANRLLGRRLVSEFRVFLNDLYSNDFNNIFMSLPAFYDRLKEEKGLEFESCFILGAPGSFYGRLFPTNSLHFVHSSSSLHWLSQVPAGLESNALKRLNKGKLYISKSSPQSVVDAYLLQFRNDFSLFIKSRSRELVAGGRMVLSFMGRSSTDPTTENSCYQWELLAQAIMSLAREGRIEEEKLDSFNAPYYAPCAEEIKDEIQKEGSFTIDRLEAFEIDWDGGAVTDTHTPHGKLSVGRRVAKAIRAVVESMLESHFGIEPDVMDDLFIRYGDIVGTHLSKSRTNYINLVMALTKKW
smiles,measurement,setting,value
CC/C=C\C[C@H]1C(=O)CC[C@@H]1CC(=O)O [jasmonic acid],"GC-MS product detection, recombinant E. coli supernatant",GhJMT2,recombinant GhJMT1 and GhJMT2 were both responsible for the conversion of JA to MeJA
same,"GC-MS product detection, recombinant E. coli supernatant",GhJMT1,recombinant GhJMT1 and GhJMT2 were both responsible for the conversion of JA to MeJA
